Like-named read-outs stand apart in the source and are kept apart here. Marks after values point to notes of the source that are not given here.
Key:
VHL + Brd2^BD1 [1] = system: VHL + Brd2^BD1; set-up: method as in PMID 28288108; details: ternary + Brd2^BD1, ITC, ref [2]; cited from earlier work
VHL + Brd3^BD1 [2] = system: VHL + Brd3^BD1; set-up: method as in PMID 28288108; details: ternary + Brd3^BD1, ITC, ref [2]; cited from earlier work
VHL + Brd4^BD1 [3] = system: VHL + Brd4^BD1; set-up: method as in PMID 28288108; details: ternary + Brd4^BD1, ITC, ref [2]; cited from earlier work
VHL + Brd2^BD2 [4] = system: VHL + Brd2^BD2; set-up: method as in PMID 28288108; details: ternary + Brd2^BD2, ITC, ref [2]; cited from earlier work
VHL + Brd3^BD2 [5] = system: VHL + Brd3^BD2; set-up: method as in PMID 28288108; details: ternary + Brd3^BD2, ITC, ref [2]; cited from earlier work
VHL [6] = target: T1, VHL (Homo sapiens, UniProt P40337); test: SPR binary binding of PROTAC to immobilized VHL; details: binary (PROTAC alone), 285.15 K
T1 construct: VHL (54-213); His6 with TEV cleavage site (N, cleaved yes); made in house; host or cells: E. coli BL21(DE3)

VHL + Brd2^BD1 [7] = target: T2, VHL + Brd2^BD1 (Homo sapiens, UniProt P25440+P40337); test: SPR ternary binding of PROTAC:Brd2^BD1 complex to immobilized VHL
T2 construct: VHL (54-213); Brd2BD1 (71-194); His6 with TEV cleavage site (N, cleaved yes); made in house; host or cells: E. coli BL21(DE3) (VCB)

VHL + Brd3^BD1 [8] = target: T3, VHL + Brd3^BD1 (Homo sapiens, UniProt P40337+Q15059); test: SPR ternary binding of PROTAC:Brd3^BD1 complex to immobilized VHL
T3 construct: VHL (54-213); Brd3BD1 (24-144); His6 with TEV cleavage site (N, cleaved yes); made in house; host or cells: E. coli BL21(DE3) (VCB)

VHL + Brd4^BD1 [9] = target: T4, VHL + Brd4^BD1 (Homo sapiens, UniProt O60885+P40337); test: SPR ternary binding of PROTAC:Brd4^BD1 complex to immobilized VHL
T4 construct: VHL (54-213); Brd4BD1 (44-168); His6 with TEV cleavage site (N, cleaved yes); made in house; host or cells: E. coli BL21(DE3) (VCB)

VHL + Brd2^BD2 [10] = target: T5, VHL + Brd2^BD2 (Homo sapiens, UniProt P25440+P40337); test: SPR ternary binding of PROTAC:Brd2^BD2 complex to immobilized VHL
T5 construct: VHL (54-213); Brd2BD2 (344-455); His6 with TEV cleavage site (N, cleaved yes); made in house; host or cells: E. coli BL21(DE3) (VCB)

VHL + Brd3^BD2 [11] = target: T6, VHL + Brd3^BD2 (Homo sapiens, UniProt P40337+Q15059); test: SPR ternary binding of PROTAC:Brd3^BD2 complex to immobilized VHL
T6 construct: VHL (54-213); Brd3BD2 (306-416); His6 with TEV cleavage site (N, cleaved yes); made in house; host or cells: E. coli BL21(DE3) (VCB)

VHL + Brd4^BD2 [12] = target: T7, VHL + Brd4^BD2 (Homo sapiens, UniProt O60885+P40337); test: SPR ternary binding of PROTAC:Brd4^BD2 complex to immobilized VHL; details: for α (cooperativity, KD^binary/KD^ternary) / ΔΔG (ΔG^ternary – ΔG^binary): SPR; for Kd / koff / kon / t1/2 (dissociative half-life, ln2/koff): ternary (+ Brd4^BD2), 298.15 K; for dissociation kinetics faster than the VHL/MZ1/Brd4^BD2 complex: ternary complex with Brd4^BD2
T7 construct: VHL (54-213); Brd4BD2 (333-460); His6 with TEV cleavage site (N, cleaved yes); made in house; host or cells: E. coli BL21(DE3) (VCB)

VHL + Brd2BD2G382E = target: T8, VHL + Brd2BD2G382E (Homo sapiens, UniProt P25440+P40337, G382E); test: SPR ternary binding of PROTAC:Brd2^BD2 G382E point mutant complex to immobilized VHL
T8 construct: VHL (54-213); Brd2BD2 (344-455); His6 with TEV cleavage site (N, cleaved yes); made in house; host or cells: E. coli BL21(DE3) (VCB)

VHL + Brd3BD2E344G = target: T9, VHL + Brd3BD2E344G (Homo sapiens, UniProt P40337+Q15059, E344G); test: SPR ternary binding of PROTAC:Brd3^BD2 E344G point mutant complex to immobilized VHL
T9 construct: VHL (54-213); Brd3BD2 (306-416); His6 with TEV cleavage site (N, cleaved yes); made in house; host or cells: E. coli BL21(DE3) (VCB)

VHL + Brd4BD2G386E = target: T10, VHL + Brd4BD2G386E (Homo sapiens, UniProt O60885+P40337, G386E); test: SPR ternary binding of PROTAC:Brd4^BD2 G386E point mutant complex to immobilized VHL
T10 construct: VHL (54-213); Brd4BD2 (333-460); His6 with TEV cleavage site (N, cleaved yes); made in house; host or cells: E. coli BL21(DE3) (VCB)

VHL [13] = details: binary, ITC at 298.15 K, cited from earlier work
VHL + Brd4^BD2 [14] = details: cited from earlier work; for Kd: ternary + Brd4^BD2, ITC at 298.15 K; for ΔΔG (ITC) / α (ITC): ternary + Brd4^BD2, ITC
Brd4^BD2 = Brd4^BD2 (Homo sapiens, UniProt O60885); test: Reversed-format SPR, PROTAC binary binding to immobilized Brd4^BD2; details: qualitative, Figures S4 and S6
[15] = ternary + Brd4^BD2, kinetic fit
[16] = steady-state affinity fit (SSA)
[17] = ternary + Brd4^BD2, steady-state affinity fit (SSA)

Row | Kd (VHL [6]; multicycle, kinetic fit) | α (cooperativity, KD^binary/KD^ternary) (VHL + Brd4^BD2 [12]; [15]) | Kd (VHL + Brd4^BD2 [12]; single-cycle, kinetic fit) | binary target affinity (for Brd4) (Brd4^BD2) | Kd (VHL [6]; [16]) | ΔΔG (ΔG^ternary – ΔG^binary) (VHL + Brd4^BD2 [12]; [15]) | ΔΔG (ΔG^ternary – ΔG^binary) (VHL + Brd4^BD2 [12]; [17]) | α (cooperativity, KD^binary/KD^ternary) (VHL + Brd4^BD2 [12]; [17]) | koff (VHL + Brd4^BD2 [12]; single-cycle, kinetic fit) | kon (VHL + Brd4^BD2 [12]; single-cycle, kinetic fit) | t1/2 (dissociative half-life, ln2/koff) (VHL + Brd4^BD2 [12]; single-cycle, kinetic fit) | Kd (VHL + Brd4^BD2 [12]; [16]) | dissociation kinetics faster than the VHL/MZ1/Brd4^BD2 complex (VHL + Brd4^BD2 [12]) | SMILES | Kd (VHL [13]; ref [10]) | Kd (VHL + Brd4^BD2 [14]; ref [10]) | ΔΔG (ITC) (VHL + Brd4^BD2 [14]; ref [10]) | α (ITC) (VHL + Brd4^BD2 [14]; ref [10]) | further results
1 | – | – | – | – | – | – | – | – | – | – | – | – | – | Cc1ncsc1-c1ccc(CNC(=O)[C@@H]2C[C@@H](O)CN2C(=O)[C@@H](NC(=O)COCCOCCOCCNC(=O)C[C@@H]2N=C(c3ccc(Cl)cc3)c3c(sc(C)c3C)-n3c(C)nnc32)C(C)(C)C)cc1 [MZ1] | – | – | – | – | ΔΔG (ITC) (VHL + Brd2^BD1 [1]): –0.6 ^d kcal/mol; α (ITC) (VHL + Brd2^BD1 [1]): 2.9 ^d; ΔΔG (ITC) (VHL + Brd3^BD1 [2]): –0.8 ^d kcal/mol; α (ITC) (VHL + Brd3^BD1 [2]): 3.5 ^d; ΔΔG (ITC) (VHL + Brd4^BD1 [3]): –0.5 ^d kcal/mol; α (ITC) (VHL + Brd4^BD1 [3]): 2.3 ^d; ΔΔG (ITC) (VHL + Brd2^BD2 [4]): –0.5 ^d kcal/mol; α (ITC) (VHL + Brd2^BD2 [4]): 2.3 ^d; ΔΔG (ITC) (VHL + Brd3^BD2 [5]): –1.5 ^d kcal/mol; α (ITC) (VHL + Brd3^BD2 [5]): 10.7 ^d
2 | 110 nM | 4.7 | 24 nM | weaker | – | – | – | – | – | – | – | – | – | CC(=O)N[C@H](C(=O)N1C[C@H](O)C[C@H]1C(=O)NCc1ccc(-c2scnc2C)cc1)C(C)(C)SCCCCCCNC(=O)C[C@@H]1N=C(c2ccc(Cl)cc2)c2c(sc(C)c2C)-n2c(C)nnc21 [AT1] | – | – | – | – | ΔΔG (ΔG^ternary – ΔG^binary) (VHL + Brd2^BD1 [7]): +0.9 kcal/mol; α (cooperativity, KD^binary/KD^ternary) (VHL + Brd2^BD1 [7]): 0.3; ΔΔG (ΔG^ternary – ΔG^binary) (VHL + Brd3^BD1 [8]): +0.2 kcal/mol; α (cooperativity, KD^binary/KD^ternary) (VHL + Brd3^BD1 [8]): 0.8; ΔΔG (ΔG^ternary – ΔG^binary) (VHL + Brd4^BD1 [9]): +1.1 kcal/mol; α (cooperativity, KD^binary/KD^ternary) (VHL + Brd4^BD1 [9]): 0.2; α (cooperativity, KD^binary/KD^ternary) (VHL + Brd2^BD2 [10]; SPR, ternary + Brd2^BD2): 4.1; Kd (VHL + Brd2^BD2 [10]; ternary (+ Brd2^BD2), 298.15 K, single-cycle, kinetic fit): 27 nM; ΔΔG (ΔG^ternary – ΔG^binary) (VHL + Brd3^BD2 [11]): +0.4 kcal/mol; α (cooperativity, KD^binary/KD^ternary) (VHL + Brd3^BD2 [11]): 0.7; ΔΔG (ΔG^ternary – ΔG^binary) (VHL + Brd2BD2G382E): +0.3 kcal/mol; α (cooperativity, KD^binary/KD^ternary) (VHL + Brd2BD2G382E): 0.7; α (cooperativity, KD^binary/KD^ternary) (VHL + Brd3BD2E344G): 3.4; ΔΔG (ΔG^ternary – ΔG^binary) (VHL + Brd4BD2G386E): +0.2 kcal/mol; α (cooperativity, KD^binary/KD^ternary) (VHL + Brd4BD2G386E): 0.8; Kd (VHL [13]; ref [2]): 335 nM; Kd (VHL + Brd4^BD2 [14]; ref [2]): 46 nM
3 | 69 nM | 0.4 | 185 nM | high | 188 nM | +0.7 kcal/mol | +0.5 kcal/mol | 0.5 | 0.47 s⁻¹ | 27 M^–1 s^–1 × 10^5 | 1 s | 134 nM | > 80 fold | CC(=O)N1c2ccc(-c3ccc(C(=O)NCCOCCOCCOCCOCC(=O)N[C@H](C(=O)N4C[C@H](O)C[C@H]4C(=O)NCc4ccc(-c5scnc5C)cc4)C(C)(C)C)cc3)cc2[C@H](Nc2ccc(Cl)cc2)C[C@@H]1C [MZP55] | 109 nM | 183 nM | +0.3 ^e kcal/mol | 0.6 ^e | koff (VHL [6]; multicycle, kinetic fit): 0.015 s⁻¹; kon (VHL [6]; multicycle, kinetic fit): 2.7 M^–1 s^–1 × 10^5; t1/2 (dissociative half-life, ln2/koff) (VHL [6]; multicycle, kinetic fit): 48 s; ΔΔG (ITC) (VHL + Brd4^BD2 [14]; ref [10], listed as MZP 55): +0.3 kcal/mol; α (ITC) (VHL + Brd4^BD2 [14]; ref [10], listed as MZP 55): 0.6
4 | – | 0.2 | 465 nM | high | 104 nM | +1.0 kcal/mol | +0.6 kcal/mol | 0.4 | 1 s⁻¹ | 30 M^–1 s^–1 × 10^5 | 1 s | 248 nM | > 80 fold | CC(=O)N1c2ccc(-c3ccc(C(=O)NCCOCCOCC(=O)N[C@H](C(=O)N4C[C@H](O)C[C@H]4C(=O)NCc4ccc(-c5scnc5C)cc4)C(C)(C)C)cc3)cc2[C@H](Nc2ccc(Cl)cc2)C[C@@H]1C [MZP61] | 116 nM | 781 nM | +1.1 ^e kcal/mol | 0.1 ^e | ΔΔG (ITC) (VHL + Brd4^BD2 [14]; ref [10], listed as MZP 61): +1.1 kcal/mol

From publication PMC6423499, “SPR-Measured Dissociation Kinetics of PROTAC Ternary Complexes Influence Target Degradation Rate” (ACS Chemical Biology, 2019)
